Results published in ChEMBL document CHEMBL1201862, “PubChem BioAssay data set” (2004).
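A five-concentration, 48-hour dose response in 96-well plates underlies each endpoint, interpolated linearly between surrounding concentrations. The concentration for 50% growth inhibition is given as GI50.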 Calls of active or inactive are those of the source. No stated cut-off is given here; in the data, active = GI50 up to about 1.1 µM and inactive = higher. Numbered stars: 1 amine (or outer) side, 2 acyl side, 3 side chain; on linkers, the order of the positions; unused ones are H or OH. Bridge positions count the residues as written; N and C are the ends. Square brackets hold non-standard residues; d marks the D form. Peptide text beside a SMILES is read from it. I, II: the chains in the order shown. Actinocin(9to1) = Cc1c2oc3c(C)ccc(C(=O)[*:1])c3nc-2c(C(=O)[*:2])c(N)c1=O; NMeH = CN[CH](Cc1c[nH]cn1)C(=O)O; Sar = CNCC(=O)O

What was measured:
Test in all cases: growth of human tumour cells (NCI), 48 h
[1] = test system: COLO 205
[2] = test system: HCC 2998
[3] = test system: HCT-15
[4] = test system: HT-29
[5] = test system: LXFL 529
[6] = test system: MOLT-4
[7] = test system: Malme-3M
[8] = test system: NCI-H23
[9] = test system: RPMI-8226
[10] = test system: SF-539
[11] = test system: SK-OV-3
[12] = test system: TK-10
[13] = test system: U-251
[14] = test system: UACC-62
[15] = test system: ACHN
[16] = test system: HOP-92
[17] = test system: Hs-578T
[18] = test system: MDA-N
[19] = test system: NCI-H226
[20] = test system: SR

SMILES	GI50 [1]	GI50 [2]	GI50 [3]	GI50 [4]	GI50 [5]	GI50 [6]	GI50 [7]	GI50 [8]	GI50 [9]	GI50 [10]	GI50 [11]	GI50 [12]	GI50 [13]	GI50 [14]	GI50 [15]	GI50 [16]	GI50 [17]	GI50 [18]	GI50 [19]	GI50 [20]
CCOc1ccccc1/N=N/c1ccc2oc(=O)c(C(C)=O)cc2c1	> 100 µM (inactive)	> 100 µM (inactive)	> 100 µM	> 100 µM (inactive)	> 100 µM (inactive)	> 100 µM (inactive)	> 100 µM (inactive)	> 100 µM (inactive)	> 100 µM (inactive)	> 100 µM (inactive)	> 100 µM (inactive)	30.5 µM (inactive)	43.7 µM (inactive)	> 100 µM (inactive)	–	–	–	–	–	–
C[N+](C)(C)CC1CCCC/C1=N\O (stereo not given)	> 100 µM (inactive)	> 100 µM (inactive)	> 100 µM	> 100 µM (inactive)	> 100 µM (inactive)	> 100 µM (inactive)	> 100 µM (inactive)	> 100 µM (inactive)	> 100 µM (inactive)	> 100 µM (inactive)	> 100 µM (inactive)	> 100 µM (inactive)	> 100 µM (inactive)	> 100 µM (inactive)	> 100 µM (inactive)	> 100 µM (inactive)	–	–	–	–
O=C1C[C@H](Sc2ccccc2)C2(OCCO2)[C@H]2ON3CCC[C@@H]3[C@@H]12	1.66 µM (inactive)	2.57 µM (inactive)	0.59 µM	0.759 µM (active)	–	0.333 µM (active)	1.73 µM (inactive)	1.91 µM (inactive)	0.306 µM (active)	1.2 µM (inactive)	3.13 µM (inactive)	3.61 µM (inactive)	1.88 µM (inactive)	1.73 µM (inactive)	2.1 µM (inactive)	1.24 µM (inactive)	3.73 µM (inactive)	3.05 µM (inactive)	8.22 µM (inactive)	0.286 µM (active)
Cc1ccccc1C1CC(=O)CC(c2ccccc2C)C12C(=O)NC(=S)NC2=O (stereo not given)	19.5 µM (inactive)	9.64 µM (inactive)	20.7 µM	22.3 µM (inactive)	–	42.4 µM (inactive)	25.6 µM (inactive)	35.2 µM (inactive)	12.6 µM (inactive)	20.9 µM (inactive)	37.2 µM (inactive)	39.4 µM (inactive)	30.7 µM (inactive)	18.7 µM (inactive)	18.4 µM (inactive)	26.1 µM (inactive)	29.1 µM (inactive)	23.6 µM (inactive)	20 µM (inactive)	37.2 µM (inactive)
O=C(O)C1OC(Oc2cc(O)c3c(=O)cc(-c4ccc(O)cc4)oc3c2)C(O)C(O)C1O (stereo not given)	> 100 µM (inactive)	> 100 µM (inactive)	–	> 100 µM (inactive)	> 100 µM (inactive)	–	> 100 µM (inactive)	> 100 µM (inactive)	–	> 100 µM (inactive)	–	> 100 µM (inactive)	> 100 µM (inactive)	–	> 100 µM (inactive)	< 0.01 µM (active)	–	–	> 100 µM (inactive)	–
CC(C)(C)c1cc(C(=O)/C=C/c2ccc(O)c(O)c2O)cc(C(C)(C)C)c1O	11.8 µM (inactive)	2.84 µM (inactive)	0.991 µM	11.7 µM (inactive)	–	2.49 µM (inactive)	11.5 µM (inactive)	4.03 µM (inactive)	1.59 µM (inactive)	2.92 µM (inactive)	3.87 µM (inactive)	3.57 µM (inactive)	2.79 µM (inactive)	4.54 µM (inactive)	5.69 µM (inactive)	5.68 µM (inactive)	3.99 µM (inactive)	4.38 µM (inactive)	14.1 µM (inactive)	1.45 µM (inactive)
O=C1/C(=C/c2ccccc2)CCC/C1=C\c1ccc(O)c(CN2CCCCC2)c1	5.89 µM (inactive)	2.39 µM (inactive)	1.78 µM	1.77 µM (inactive)	–	3.1 µM (inactive)	11.4 µM (inactive)	3.96 µM (inactive)	3.27 µM (inactive)	2.95 µM (inactive)	9.1 µM (inactive)	15.2 µM (inactive)	3.17 µM (inactive)	3.59 µM (inactive)	1.81 µM (inactive)	4.55 µM (inactive)	3.93 µM (inactive)	2.56 µM (inactive)	6.41 µM (inactive)	1.05 µM (active)
CN(C)CCCCN1c2ccccc2Sc2cc(N=[N+]=[N-])ccc21	1.69 µM (inactive)	1.89 µM (inactive)	1.85 µM	1.55 µM (inactive)	–	1.93 µM (inactive)	1.82 µM (inactive)	9.66 µM (inactive)	2.38 µM (inactive)	1.96 µM (inactive)	2.2 µM (inactive)	2.02 µM (inactive)	2.04 µM (inactive)	1.85 µM (inactive)	1.99 µM (inactive)	2.74 µM (inactive)	3.03 µM (inactive)	1.72 µM (inactive)	3.28 µM (inactive)	2.54 µM (inactive)
O=C1c2ccccc2C(=O)N1[C@@H](Cc1ccccc1)C(=O)n1cccc1CO	> 100 µM (inactive)	> 100 µM (inactive)	> 100 µM	> 100 µM (inactive)	–	> 100 µM (inactive)	> 100 µM (inactive)	> 100 µM (inactive)	93.8 µM (inactive)	> 100 µM (inactive)	> 100 µM (inactive)	> 100 µM (inactive)	> 100 µM (inactive)	> 100 µM (inactive)	> 100 µM (inactive)	> 100 µM (inactive)	> 100 µM (inactive)	> 100 µM (inactive)	> 100 µM (inactive)	> 100 µM (inactive)
CO/C(N)=C(C#N)/N=C/c1ccccc1	71.9 µM (inactive)	> 100 µM (inactive)	> 100 µM	51.3 µM (inactive)	–	> 100 µM (inactive)	40.3 µM (inactive)	> 100 µM (inactive)	> 100 µM (inactive)	> 100 µM (inactive)	> 100 µM (inactive)	> 100 µM (inactive)	> 100 µM (inactive)	48 µM (inactive)	> 100 µM (inactive)	> 100 µM (inactive)	> 100 µM (inactive)	> 100 µM (inactive)	> 100 µM (inactive)	> 100 µM (inactive)
COc1cc(O)c2c(c1O)C(=O)c1cc(C)ncc1C2=O	20.3 µM (inactive)	22.5 µM (inactive)	16.6 µM	15.3 µM (inactive)	18.6 µM (inactive)	30.8 µM (inactive)	9.71 µM (inactive)	12.4 µM (inactive)	22.9 µM (inactive)	17.4 µM (inactive)	9.89 µM (inactive)	> 50 µM (inactive)	12.9 µM (inactive)	17.3 µM (inactive)	24.3 µM (inactive)	–	–	–	45 µM (inactive)	–
COc1ccc2nc(-c3cccs3)cc(C(O)CN3CCSCC3)c2c1 (stereo not given)	22.9 µM (inactive)	19.7 µM (inactive)	16.1 µM	25 µM (inactive)	12.6 µM (inactive)	12.2 µM (inactive)	15.2 µM (inactive)	20.9 µM (inactive)	10.5 µM (inactive)	22.1 µM (inactive)	39.6 µM (inactive)	31.2 µM (inactive)	19.2 µM (inactive)	17.7 µM (inactive)	13.5 µM (inactive)	14.3 µM (inactive)	–	–	–	–
Cc1cc(Cl)ccc1NC1=NC(=O)C(CC(=O)Nc2ccc(Cl)cc2Cl)S1 (stereo not given)	> 100 µM (inactive)	> 100 µM (inactive)	> 100 µM	> 100 µM (inactive)	> 100 µM (inactive)	> 100 µM (inactive)	> 100 µM (inactive)	> 100 µM (inactive)	> 100 µM (inactive)	> 100 µM (inactive)	> 100 µM (inactive)	> 100 µM (inactive)	> 100 µM (inactive)	> 100 µM (inactive)	> 100 µM (inactive)	–	–	–	–	–
O=C1/C(=N\NC(=S)NC2CCCCC2)c2cc([N+](=O)[O-])ccc2N1CN1CCOCC1	5.32 µM (inactive)	4.93 µM (inactive)	2.39 µM	4.48 µM (inactive)	–	1.71 µM (inactive)	11.4 µM (inactive)	5.93 µM (inactive)	11.3 µM (inactive)	11.4 µM (inactive)	13 µM (inactive)	6.76 µM (inactive)	4.52 µM (inactive)	7.89 µM (inactive)	5.11 µM (inactive)	1.96 µM (inactive)	15 µM (inactive)	6.08 µM (inactive)	19.1 µM (inactive)	1.14 µM (inactive)
Nc1ccc(O)c2c1C(=O)c1c(N)ccc(O)c1C2=O	> 100 µM (inactive)	> 100 µM (inactive)	> 100 µM	–	> 100 µM (inactive)	> 100 µM (inactive)	> 100 µM (inactive)	> 100 µM (inactive)	> 100 µM (inactive)	> 100 µM (inactive)	> 100 µM (inactive)	> 100 µM (inactive)	> 100 µM (inactive)	> 100 µM (inactive)	> 100 µM (inactive)	> 100 µM (inactive)	–	–	–	–
Cc1c2oc3c(C)ccc(C(=O)NC4C(=O)NC(C(C)C)C(=O)N5CCCC5C(=O)N(C)CC(=O)N(C)C(Cc5cnc[nH]5)C(=O)OC4C)c3nc-2c(C(=O)NC2C(=O)NC(C(C)C)C(=O)N3CCCC3C(=O)N(C)CC(=O)N(C)C(Cc3cnc[nH]3)C(=O)OC2C)c(N)c1=O (stereo not given) (I: TVP[Sar][NMeH] / II: TVP[Sar][NMeH]; ester I:1-I:C, II:1-II:C; linker I:N-II:N via Actinocin(9to1); configuration not given here)	31.3 µM (inactive)	37.8 µM (inactive)	> 100 µM	31.8 µM (inactive)	–	37.3 µM (inactive)	55.7 µM (inactive)	65.5 µM (inactive)	31.6 µM (inactive)	28.8 µM (inactive)	69.3 µM (inactive)	> 100 µM (inactive)	57.1 µM (inactive)	30.3 µM (inactive)	51.3 µM (inactive)	40.6 µM (inactive)	1 µM (active)	25.2 µM (inactive)	56.2 µM (inactive)	65.3 µM (inactive)
